Test results reported in patent US9029078B2, “Perfusion and/or preservation solution for organs” (Philadelphia College of Osteopathic Medicine, priority 2005, dated 2015).
“Also recorded” adds a separate entry of the source. Where no end group is shown, it is not given here.

What was measured:
[1] = test system: PMN infiltration into the myocardium of isolated perfused rat hearts; assay: Histological assessment of total intravascular and infiltrated PMNs in post-reperfusion cardiac tissue
Description: FIG. 4a. Histological assessment of total intravascular and infiltrated PMNs in isolated perfused rat heart samples taken from 3 rats per group and 10 areas per heart. […] Hatched boxes represent non-PMN perfused hearts and black boxes represent PMN-perfused hearts. **P<0.01, from I/R+PMNs.
(§1) Data were recorded every 5 min for 45 min post-reperfusion. After each experiment, the left ventricle was isolated, fixed in 4% paraformaldehyde and stored at 4° C. for later histological analysis.
The cardiac injury associated with I/R in this model was closely correlated with the substantial number of PMNs infiltrating the myocardium within the 45 min reperfusion period. During reperfusion, a significant number of PMNs transmigrated into the myocardium, increasing from less than 25 PMN/mm^2 in Sham I/R hearts to more than 180 PMN/mm^2 in I/R+PMN hearts at the end of the reperfusion period (FIG. 4a).

[2] = test system: PMN adherence to coronary vascular endothelium; assay: Histological assessment of intravascular PMNs adhering to the coronary vasculature; parameters: species or system rat
Description: FIG. 4b. Histological assessment of intravascular PMNs that adhered to the coronary vasculature in isolated perfused rat heart samples taken from 3 rats per group
and 10 areas per heart. […] Hatched boxes represent non-PMN perfused hearts and black boxes represent PMN-perfused hearts. All values are mean numbers of PMNs/mm^2 of heart area± SEM.
PMN adherence to coronary vascular endothelium was also evaluated within the assessment of total intravascular and infiltrated PMNs. […] NO release from rat aortic endothelium was measured to determine if PKC ζ peptide inhibitor provides cardioprotection by a mechanism involving increased endothelial NO release. […] The eNOS inhibitor, L-NAME, was used as another control in order to decrease basal release of NO to zero.

[3] = test system: PMA-stimulated rat PMNs; assay: Superoxide release from PMA-stimulated rat PMNs; format: cell-based; settings: for Superoxide release vs PMA-stimulated rat PMNs (in words): 1 μM; for Superoxide release (absorbance): PMA-stimulated PMNs alone 0.49±0.03; for Superoxide release after PMA (15 nM) stimulation (in words): 360 sec after PMA
Description: (§2) FIG. 6. Superoxide release from rat PMNs. Superoxide release was measured from 5×10^6 PMNs after phorbol-12-myristate-13-acetate (PMA) (15 nM) stimulation. Superoxide dismutase (SOD) (10 μg/ml) was employed as a positive control. The change in absorbance (Δ) was measured 360 sec after PMA addition (peak response). […] All values are means± SEM. Numbers at bottom of bars show the numbers of separate experiments per group.
as §2, with “18.” for “6.”, “PMA” for “phorbol-12-myristate-13-acetate (PMA)”, “SOD” for “Superoxide dismutase (SOD)”
FIG. 22. Superoxide release from rat PMNs. Superoxide release was measured from 5×10^6 PMNs after PMA (15 nM) stimulation. The change in absorbance (Δ) was measured 360 sec after PMA addition (peak response). […] All values are means± SEM. Numbers at bottom of bars show the numbers of separate experiments per group.

[4] = test system: isolated perfused rat hearts (I/R+PMNs); assay: Isolated perfused rat heart, 20 min ischemia / 45 min reperfusion with PMNs: cardiac contractile function (LVDP, +dP/dtmax, LVEDP); settings: for LVDP of initial baseline (initial depression): 15 min into reperfusion; for PMN-induced contractile dysfunction / decrease in +dP/dt max (in words): final +dP/dt max after reperfusion; for PMN-induced contractile dysfunction / decrease in +dP/dt max (in words) / PMN-induced contractile dysfunction / decrease in LVDP (in words): vs I/R+PMNs; for PMN-induced contractile dysfunction / decrease in LVDP (in words): final LVDP, 45 min post reperfusion; for Protective effect on +dP/dt max in the presence of L-NAME (in words) / Protective effect on LVDP in the presence of L-NAME (in words): with L-NAME
Description: as §1

[5] = test system: rat aortic endothelium; assay: Measurement of NO release from rat aortic segments; settings: for Increase in NO release above basal: basal 1.85±0.18; for Induced production of NO after treating the endothelium with L-NAME: L-NAME 400 μM
Excerpt: FIG. 5. Measurement of NO release from rat aortic segments. […] All values are expressed as means± SEM. Numbers at bottom of bars are numbers of separate experiments per group. *p<0.05, **p<0.01, from basal values. FIG. 10. Measurement of NO release from rat aortic segments. […] All values are expressed as means± SEM. Numbers at bottom of bars are numbers of separate experiments per group. *p<0.05, **p<0.01, from basal values. FIG. 17. Measurement of NO release from rat aortic segments. […] All values are expressed as means± SEM. Numbers at bottom of bars are numbers of separate experiments per group. **p<0.01, from basal values. PMN adherence to coronary vascular endothelium was also evaluated within the assessment of total intravascular and infiltrated PMNs. […] NO release from rat aortic endothelium was measured to determine if PKC ζ peptide inhibitor provides cardioprotection by a mechanism involving increased endothelial NO release. […] The eNOS inhibitor, L-NAME, was used as another control in order to decrease basal release of NO to zero.

[6] = test system: fMLP-stimulated rat PMNs; assay: Superoxide release from fMLP-stimulated rat PMNs; format: cell-based; settings: for Superoxide release (absorbance): fMLP-stimulated PMNs alone 0.13±0.01
Description: as §2, with “11.” for “6.”, “formyl-methionyl-leucyl-phenylalanine (fMLP) (200” for “phorbol-12-myristate-13-acetate (PMA) (15”, “SOD” for “Superoxide dismutase (SOD)”, “90” for “360”, “fMLP” for “PMA”, “are” for “show the”

[7] = I/R+PMN hearts, 1 μM, 45 min post-reperfusion
[8] = I/R+PMN hearts, 5 μM, 45 min post-reperfusion
[9] = I/R+PMN hearts, 10 μM, 45 min post-reperfusion
[10] = I/R+PMN hearts, 10 μM + L-NAME 50 μM, 45 min post-reperfusion
[11] = I/R+PMN hearts, 2.5 μM, 45 min post-reperfusion
[12] = I/R+PMN hearts, 5 μM + L-NAME 50 μM, 45 min post-reperfusion

PKC δ peptide activator: peptide activator of protein kinase C delta; preferred sequence SEQ ID NO: 3, preferably myristoylated (MRAAEDPM; not fully specified; listed as Homo sapiens)
Total intravascular and infiltrated PMNs vs I/R+PMNs (in words) ([1]; I/R+PMN hearts): attenuated | PMNs adhering to the coronary vasculature vs I/R+PMN hearts (in words) [2]: attenuated | Superoxide release vs PMA-stimulated rat PMNs (in words) [3]: no significant inhibition | Superoxide release (absorbance) ([3]; 5 μM): 0.32±0.03 | Superoxide release (absorbance) ([3]; 10 μM): 0.32±0.02 | Superoxide release after PMA (15 nM) stimulation (in words) [3]: significantly inhibited | LVDP of I/R+PMN group compared to treated I/R+PMN group (time course) ([4]; 10 μM, reperfusion 0 to 45 min): significant and sustained reduction | LVEDP of I/R+PMN group compared to treated I/R+PMN group (time course) ([4]; 10 μM, reperfusion 0 to 45 min): significant and sustained elevation | +dP/dtmax recovered to, of initial baseline [4, 7]: 51±5% | LVDP recovered to, of initial baseline [4, 7]: 60±13% | +dP/dtmax recovered to, of initial baseline [4, 8]: 67±7% | LVDP recovered to, of initial baseline [4, 8]: 80±9% | LVDP of initial baseline (initial depression) ([4]; I/R+PMN hearts, 10 μM): 58±8% | +dP/dtmax recovered to, of initial baseline [4, 9]: 79±5% | LVDP recovered to, of initial baseline [4, 9]: 83±3% | PMN-induced contractile dysfunction / decrease in +dP/dt max (in words) [4]: attenuated | PMN-induced contractile dysfunction / decrease in LVDP (in words) [4]: attenuated

PKC βII peptide inhibitor: peptide inhibitor of protein kinase C beta II; preferred sequence SEQ ID NO: 1, preferably myristoylated (SLNPEWNET; not fully specified; listed as Homo sapiens)
Endothelial NO release vs basal NO release (in words) [5]: significantly increased; also recorded: significantly more NO | Increase in NO release above basal ([5]; 1 μM): 0.75±0.19 pmoles NO/mg tissue | Increase in NO release above basal ([5]; 2.5 μM): 1.91±0.44 pmoles NO/mg tissue | Increase in NO release above basal ([5]; 5 μM): 2.54±0.29 pmoles NO/mg tissue | Increase in NO release above basal ([5]; 10 μM): 3.49±0.62 pmoles NO/mg tissue | Induced production of NO after treating the endothelium with L-NAME [5]: completely inhibited | Inhibition of superoxide (in words) ([6]; 1 μM): no significant inhibition | Superoxide release (absorbance) ([6]; 5 μM): 0.05±0.009 | Superoxide release (absorbance) ([6]; 10 μM): 0.02±0.004 | Superoxide release (absorbance) ([6]; 20 μM): 0.02±0.007 | Superoxide release after fMLP (200 nM) stimulation (in words) ([6]; 5, 10 and 20 μM, 90 sec after fMLP): significantly inhibited | LVDP of I/R+PMN group compared to treated I/R+PMN group (time course) ([4]; 10 μM, reperfusion 0 to 45 min): significant and sustained reduction | +dP/dtmax recovered to, of initial baseline [4, 7]: 53±6% | LVDP recovered to, of initial baseline [4, 7]: 57±4% | +dP/dtmax recovered to, of initial baseline [4, 8]: 63±7% | LVDP recovered to, of initial baseline [4, 8]: 69±7% | +dP/dtmax of initial baseline [4, 10]: 53±5% | LVDP of initial baseline [4, 10]: 56±2% | LVDP of initial baseline (initial depression) ([4]; I/R+PMN hearts, 10 μM): 61±10% | +dP/dtmax recovered to, of initial baseline [4, 9]: 79±10% | LVDP recovered to, of initial baseline [4, 9]: 82±9% | Protective effect on +dP/dt max in the presence of L-NAME (in words) ([4]; I/R+PMN hearts): blocked | Protective effect on LVDP in the presence of L-NAME (in words) ([4]; I/R+PMN hearts): significantly blocked | PMN-induced contractile dysfunction / decrease in +dP/dt max (in words) [4]: attenuated | PMN-induced contractile dysfunction / decrease in LVDP (in words) [4]: attenuated

CC(=O)OCC[N+](C)(C)C [Acetylcholine, reference compound]
Increase in NO release compared to basal NO release ([5]; 200 nM (positive control)): 67±4% | Increase in NO release above basal ([5]; 500 nM (positive control)): 3.75±0.58 pmoles NO/mg tissue

PKC ζ peptide inhibitor: peptide inhibitor of protein kinase C zeta; preferred sequence SEQ ID NO: 2, preferably myristoylated; from Genemed Synthesis (SIYRRGARRWRKL; not fully specified; listed as Homo sapiens)
Endothelial NO release vs basal NO release (in words) [5]: significantly increased | NO release compared to basal NO release ([5]; 1 μM): not significantly different | Increase in NO release compared to basal NO release ([5]; 2.5 μM): 47±2% | Increase in NO release compared to basal NO release ([5]; 5 μM): 54±5% | NO release from endothelium removed (denuded) rat aortic segments ([5]; 5 μM, denuded segments): not different from L-NAME-treated segments | Increase in NO release compared to basal NO release ([5]; 15 μM): 91±15% | Induced production of NO after treating the endothelium with L-NAME [5]: completely inhibited | Infiltrated PMNs compared to 1 μM treated hearts ([1]; 2.5 and 5 μM treated hearts): significantly fewer infiltrated PMNs | Total intravascular and infiltrated PMNs vs I/R+PMNs (in words) ([1]; I/R+PMN hearts): significantly attenuated | Reduction in PMN infiltration into post-reperfused cardiac tissue ([1]; I/R+PMN hearts, 1 μM): 20±6% | Reduction in PMN infiltration into post-reperfused cardiac tissue ([1]; I/R+PMN hearts, 2.5 μM): 46±4% | Reduction in PMN infiltration into post-reperfused cardiac tissue ([1]; I/R+PMN hearts, 5 μM): 48±3% | Effect on PMN infiltration in the presence of L-NAME (in words) ([1]; I/R+PMN hearts, with L-NAME): blocked | Reduction in adherent PMNs to the coronary endothelium (not significant, p<0.06) ([2]; I/R+PMN hearts, 5 μM): 43±10% | Superoxide release vs PMA-stimulated rat PMNs (in words) [3]: no difference | Inhibition of PMN superoxide release ([3]; 15 μM): 82% | Inhibition of superoxide release ([3]; 2.5-15 μM, PMA 15 nM): 33-82% | Superoxide release after PMA (15 nM) stimulation (in words) [3]: significantly inhibited | LVDP of I/R+PMN group compared to treated I/R+PMN group (time course) ([4]; 5 μM, reperfusion 0 to 45 min): significant and sustained reduction | +dP/dtmax recovered to, of initial baseline [4, 7]: 46±6% | LVDP recovered to, of initial baseline [4, 7]: 57±10% | +dP/dtmax recovered to, of initial baseline [4, 11]: 75±5% | LVDP recovered to, of initial baseline [4, 11]: 83±4% | +dP/dtmax recovered to, of initial baseline [4, 12]: 54±9% | LVDP recovered to, of initial baseline [4, 12]: 58±7% | +dP/dtmax recovered to, of initial baseline [4, 8]: 76±5% | LVDP recovered to, of initial baseline [4, 8]: 84±4% | Lowest effective dose ([4]; I/R+PMN hearts, LVDP and +dP/dtmax): 2.5 µM | Protective effect on +dP/dt max in the presence of L-NAME (in words) ([4]; I/R+PMN hearts): blocked | Protective effect on LVDP in the presence of L-NAME (in words) ([4]; I/R+PMN hearts): significantly blocked | PMN-induced contractile dysfunction / decrease in +dP/dt max (in words) [4]: attenuated | PMN-induced contractile dysfunction / decrease in LVDP (in words) [4]: attenuated
